Results taken from paper PMC7265341, “Quantifying CDK inhibitor selectivity in live cells” (Nature Communications, 2020).
Like-named read-outs stand apart in the source and are kept apart here.

Key:
CDK1/Cyclin E1 = CDK1/Cyclin E1 (Homo sapiens, UniProt P06493); experiment: NanoBRET live-cell target engagement, CDK1-NanoLuc/Cyclin E1 in HEK-293; assay type: binding; settings: CDK1/E1, read-out: Inhibition at 10µM (%)
CDK4/Cyclin D1 = CDK4/Cyclin D1 (Homo sapiens, UniProt P11802); experiment: NanoBRET live-cell target engagement, NanoLuc-CDK4/Cyclin D1 in HEK-293; assay type: binding; settings: CDK4/D1, read-out: Inhibition at 10µM (%)
CDK5/CDK5R1 = CDK5/CDK5R1 (Homo sapiens, UniProt Q00535); experiment: NanoBRET live-cell target engagement, CDK5-NanoLuc/CDK5R1 in HEK-293; assay type: binding; settings: CDK5/CDK5R1, read-out: Inhibition at 10µM (%)
CDK6/Cyclin D1 = CDK6/Cyclin D1 (Homo sapiens, UniProt Q00534); experiment: NanoBRET live-cell target engagement, NanoLuc-CDK6/Cyclin D1 in HEK-293; assay type: binding; settings: CDK6/D1, read-out: Inhibition at 10µM (%)
CDK8/Cyclin C = CDK8/Cyclin C (Homo sapiens, UniProt P49336); experiment: NanoBRET live-cell target engagement, NanoLuc-CDK8/Cyclin C in HEK-293; assay type: binding; settings: for inhibition at 10 µM: read-out: Inhibition at 10µM (%)
CDK9/Cyclin K = CDK9/Cyclin K (Homo sapiens, UniProt P50750); experiment: NanoBRET live-cell target engagement, NanoLuc-CDK9/Cyclin K in HEK-293; assay type: binding; settings: CDK9/K, read-out: Inhibition at 10µM (%)
CDK11A/Cyclin L2 = molecular target: T1, CDK11A/Cyclin L2 (Homo sapiens, UniProt Q9UQ88); experiment: NanoBRET live-cell target engagement, CDK11A-NanoLuc/Cyclin L2 in HEK-293; assay type: binding; settings: CDK11a/L2, read-out: Inhibition at 10µM (%)
T1 sequence (Q9UQ88 1-783): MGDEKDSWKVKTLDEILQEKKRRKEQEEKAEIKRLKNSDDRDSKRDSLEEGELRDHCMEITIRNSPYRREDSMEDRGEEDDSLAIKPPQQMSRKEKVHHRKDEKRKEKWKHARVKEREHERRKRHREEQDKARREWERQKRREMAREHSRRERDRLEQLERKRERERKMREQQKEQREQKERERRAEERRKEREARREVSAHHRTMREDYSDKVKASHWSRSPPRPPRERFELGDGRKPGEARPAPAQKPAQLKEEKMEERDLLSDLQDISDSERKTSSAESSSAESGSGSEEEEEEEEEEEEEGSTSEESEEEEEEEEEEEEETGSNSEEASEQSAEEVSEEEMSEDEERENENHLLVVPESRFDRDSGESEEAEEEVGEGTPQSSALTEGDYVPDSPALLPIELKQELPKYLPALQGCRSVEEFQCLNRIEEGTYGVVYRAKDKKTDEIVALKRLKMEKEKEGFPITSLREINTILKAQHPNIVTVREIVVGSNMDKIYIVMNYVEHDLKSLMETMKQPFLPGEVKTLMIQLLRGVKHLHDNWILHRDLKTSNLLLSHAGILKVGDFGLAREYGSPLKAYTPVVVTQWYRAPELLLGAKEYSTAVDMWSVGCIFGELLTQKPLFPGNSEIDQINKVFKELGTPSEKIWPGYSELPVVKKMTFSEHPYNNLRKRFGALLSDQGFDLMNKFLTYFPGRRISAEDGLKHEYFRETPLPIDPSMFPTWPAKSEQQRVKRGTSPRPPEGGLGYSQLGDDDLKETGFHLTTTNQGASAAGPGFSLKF

CDK11B/Cyclin L2 = CDK11B/Cyclin L2 (Homo sapiens, UniProt P21127); experiment: NanoBRET live-cell target engagement, CDK11B-NanoLuc/Cyclin L2 in HEK-293; assay type: binding; settings: CDK11b/L2, read-out: Inhibition at 10µM (%)
CDK12/Cyclin K = CDK12/Cyclin K (Homo sapiens, UniProt Q9NYV4); experiment: NanoBRET live-cell target engagement, CDK12-NanoLuc/Cyclin K in HEK-293; assay type: binding; settings: CDK12/K, read-out: Inhibition at 10µM (%)
CDK13/Cyclin K = CDK13/Cyclin K (Homo sapiens, UniProt Q14004); experiment: NanoBRET live-cell target engagement, CDK13-NanoLuc/Cyclin K in HEK-293; assay type: binding; settings: CDK13/K, read-out: Inhibition at 10µM (%)
CDK14/Cyclin Y = CDK14/Cyclin Y (Homo sapiens, UniProt O94921); experiment: NanoBRET live-cell target engagement, CDK14-NanoLuc/Cyclin Y in HEK-293; assay type: binding; settings: CDK14/Y, read-out: Inhibition at 10µM (%)
CDK15/Cyclin Y = CDK15/Cyclin Y (Homo sapiens, UniProt Q96Q40); experiment: NanoBRET live-cell target engagement, NanoLuc-CDK15/Cyclin Y in HEK-293; assay type: binding; settings: CDK15/Y, read-out: Inhibition at 10µM (%)
CDK16/Cyclin Y = CDK16/Cyclin Y (Homo sapiens, UniProt Q00536); experiment: NanoBRET live-cell target engagement, CDK16-NanoLuc/Cyclin Y in HEK-293; assay type: binding; settings: CDK16/Y; for IC50: read-out: IC50; for inhibition at 10 µM: read-out: Inhibition at 10µM (%)
CDK17/Cyclin Y = CDK17/Cyclin Y (Homo sapiens, UniProt Q00537); experiment: NanoBRET live-cell target engagement, CDK17-NanoLuc/Cyclin Y in HEK-293; assay type: binding; settings: CDK17/Y; for IC50: read-out: IC50; for inhibition at 10 µM: read-out: Inhibition at 10µM (%)
CDK18/Cyclin Y = CDK18/Cyclin Y (Homo sapiens, UniProt Q07002); experiment: NanoBRET live-cell target engagement, CDK18-NanoLuc/Cyclin Y in HEK-293; assay type: binding; settings: CDK18/Y; for IC50: read-out: IC50; for inhibition at 10 µM: read-out: Inhibition at 10µM (%)
CDK20/Cyclin H = CDK20/Cyclin H (Homo sapiens, UniProt Q8IZL9); experiment: NanoBRET live-cell target engagement, NanoLuc-CDK20/Cyclin H in HEK-293; assay type: binding; settings: CDK20/H, read-out: Inhibition at 10µM (%)
CDK19/Cyclin C = CDK19/Cyclin C (Homo sapiens, UniProt Q9BWU1); experiment: NanoBRET live-cell target engagement, NanoLuc-CDK19/Cyclin C in HEK-293; settings: for inhibition at 10 µM: read-out: Inhibition at 10µM (%), CDK19/C
CDK10/Cyclin L2 = CDK10/Cyclin L2 (Homo sapiens, UniProt Q15131); experiment: NanoBRET live-cell target engagement, CDK10-NanoLuc/Cyclin L2 in HEK-293; settings: for IC50: IC50 (nM), CDK10/L2; for inhibition at 10 µM: read-out: Inhibition at 10µM (%), CDK10/L2

Chain of CDK15/Cyclin Y (Q96Q40 whole entry): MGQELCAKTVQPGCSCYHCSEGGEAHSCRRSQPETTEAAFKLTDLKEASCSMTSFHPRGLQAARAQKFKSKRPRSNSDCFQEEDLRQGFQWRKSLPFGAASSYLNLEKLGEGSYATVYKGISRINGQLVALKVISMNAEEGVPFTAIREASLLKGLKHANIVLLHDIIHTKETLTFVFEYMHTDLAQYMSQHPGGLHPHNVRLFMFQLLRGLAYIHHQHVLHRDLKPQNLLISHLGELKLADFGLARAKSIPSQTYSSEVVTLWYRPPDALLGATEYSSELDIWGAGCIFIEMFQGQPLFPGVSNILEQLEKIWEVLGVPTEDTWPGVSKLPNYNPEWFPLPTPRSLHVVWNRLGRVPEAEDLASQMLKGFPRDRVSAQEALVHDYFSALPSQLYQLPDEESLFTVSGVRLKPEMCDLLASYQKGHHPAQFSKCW
Chain of CDK15/Cyclin Y (Q8ND76 whole entry partner): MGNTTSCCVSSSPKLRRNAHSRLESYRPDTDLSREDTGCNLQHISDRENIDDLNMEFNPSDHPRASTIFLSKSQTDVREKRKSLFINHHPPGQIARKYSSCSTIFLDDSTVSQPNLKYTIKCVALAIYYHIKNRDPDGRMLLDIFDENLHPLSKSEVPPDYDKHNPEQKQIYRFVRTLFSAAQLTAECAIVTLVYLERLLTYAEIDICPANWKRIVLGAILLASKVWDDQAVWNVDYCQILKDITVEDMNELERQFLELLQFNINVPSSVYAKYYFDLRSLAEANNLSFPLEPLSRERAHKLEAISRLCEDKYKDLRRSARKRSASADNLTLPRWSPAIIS
Chain of CDK17/Cyclin Y (Q00537 whole entry): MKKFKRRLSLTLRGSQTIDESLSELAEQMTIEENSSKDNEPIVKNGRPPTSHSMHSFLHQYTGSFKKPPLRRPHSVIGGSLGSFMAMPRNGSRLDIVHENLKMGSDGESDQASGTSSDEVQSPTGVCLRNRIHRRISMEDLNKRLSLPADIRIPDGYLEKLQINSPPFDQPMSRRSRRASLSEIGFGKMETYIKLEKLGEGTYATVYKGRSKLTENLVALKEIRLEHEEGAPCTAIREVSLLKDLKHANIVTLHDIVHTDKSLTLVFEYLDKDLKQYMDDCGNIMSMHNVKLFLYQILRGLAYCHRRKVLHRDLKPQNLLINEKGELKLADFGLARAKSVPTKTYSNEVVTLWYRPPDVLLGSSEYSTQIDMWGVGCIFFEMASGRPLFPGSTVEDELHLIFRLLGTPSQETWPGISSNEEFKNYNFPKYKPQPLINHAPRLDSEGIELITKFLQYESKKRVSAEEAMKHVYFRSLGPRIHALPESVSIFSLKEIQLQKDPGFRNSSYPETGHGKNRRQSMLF
Chain of CDK17/Cyclin Y (Q8ND76 whole entry partner): as the sequence (Q8ND76 whole entry partner) above
Chain of CDK14/Cyclin Y (O94921 whole entry): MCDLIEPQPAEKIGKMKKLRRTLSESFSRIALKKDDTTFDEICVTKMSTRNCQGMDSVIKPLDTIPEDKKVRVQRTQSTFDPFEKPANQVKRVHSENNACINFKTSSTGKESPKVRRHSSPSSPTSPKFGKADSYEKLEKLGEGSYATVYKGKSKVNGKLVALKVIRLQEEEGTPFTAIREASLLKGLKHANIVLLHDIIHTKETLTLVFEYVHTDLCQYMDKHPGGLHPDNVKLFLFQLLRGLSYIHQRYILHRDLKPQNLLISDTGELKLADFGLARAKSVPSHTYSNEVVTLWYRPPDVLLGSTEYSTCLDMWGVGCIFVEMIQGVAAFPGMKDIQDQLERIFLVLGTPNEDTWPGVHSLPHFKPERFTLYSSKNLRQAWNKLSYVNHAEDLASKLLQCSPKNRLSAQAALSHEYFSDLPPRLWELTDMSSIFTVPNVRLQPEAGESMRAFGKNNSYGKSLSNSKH
Chain of CDK14/Cyclin Y (Q8ND76 whole entry partner): as the sequence (Q8ND76 whole entry partner) above
Chain of CDK11B/Cyclin L2 (P21127 1-782 isoform P21127-2): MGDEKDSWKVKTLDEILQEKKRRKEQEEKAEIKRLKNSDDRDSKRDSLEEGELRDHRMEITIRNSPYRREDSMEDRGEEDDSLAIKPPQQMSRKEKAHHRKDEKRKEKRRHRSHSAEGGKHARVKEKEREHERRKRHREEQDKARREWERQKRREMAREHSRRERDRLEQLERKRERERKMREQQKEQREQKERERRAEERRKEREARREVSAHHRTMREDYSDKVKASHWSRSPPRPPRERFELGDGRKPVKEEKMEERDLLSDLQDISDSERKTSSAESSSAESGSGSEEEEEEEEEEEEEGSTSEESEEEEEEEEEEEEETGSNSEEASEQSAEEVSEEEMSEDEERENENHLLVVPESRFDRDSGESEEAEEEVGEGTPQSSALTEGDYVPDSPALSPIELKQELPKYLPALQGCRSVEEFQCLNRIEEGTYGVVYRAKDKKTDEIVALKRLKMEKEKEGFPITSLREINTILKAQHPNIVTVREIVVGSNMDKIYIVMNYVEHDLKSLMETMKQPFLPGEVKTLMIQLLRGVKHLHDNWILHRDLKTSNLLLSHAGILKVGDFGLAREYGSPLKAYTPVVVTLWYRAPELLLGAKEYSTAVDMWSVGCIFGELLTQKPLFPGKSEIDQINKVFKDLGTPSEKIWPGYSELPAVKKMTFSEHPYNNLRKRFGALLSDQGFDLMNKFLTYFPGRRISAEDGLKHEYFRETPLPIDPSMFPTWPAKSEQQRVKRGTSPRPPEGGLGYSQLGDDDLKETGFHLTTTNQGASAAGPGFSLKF
Chain of CDK9/Cyclin K (P50750 whole entry): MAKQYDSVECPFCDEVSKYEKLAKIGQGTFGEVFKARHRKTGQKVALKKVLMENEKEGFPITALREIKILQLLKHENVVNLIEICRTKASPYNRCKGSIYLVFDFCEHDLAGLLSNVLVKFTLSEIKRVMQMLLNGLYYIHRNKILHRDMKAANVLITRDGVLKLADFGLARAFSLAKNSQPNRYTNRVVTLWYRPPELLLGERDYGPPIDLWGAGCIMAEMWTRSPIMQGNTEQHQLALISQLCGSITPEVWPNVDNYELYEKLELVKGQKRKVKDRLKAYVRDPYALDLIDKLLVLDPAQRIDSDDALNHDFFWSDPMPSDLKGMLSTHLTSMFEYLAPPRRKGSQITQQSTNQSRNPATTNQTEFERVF
Chain of CDK9/Cyclin K (O75909 whole entry partner): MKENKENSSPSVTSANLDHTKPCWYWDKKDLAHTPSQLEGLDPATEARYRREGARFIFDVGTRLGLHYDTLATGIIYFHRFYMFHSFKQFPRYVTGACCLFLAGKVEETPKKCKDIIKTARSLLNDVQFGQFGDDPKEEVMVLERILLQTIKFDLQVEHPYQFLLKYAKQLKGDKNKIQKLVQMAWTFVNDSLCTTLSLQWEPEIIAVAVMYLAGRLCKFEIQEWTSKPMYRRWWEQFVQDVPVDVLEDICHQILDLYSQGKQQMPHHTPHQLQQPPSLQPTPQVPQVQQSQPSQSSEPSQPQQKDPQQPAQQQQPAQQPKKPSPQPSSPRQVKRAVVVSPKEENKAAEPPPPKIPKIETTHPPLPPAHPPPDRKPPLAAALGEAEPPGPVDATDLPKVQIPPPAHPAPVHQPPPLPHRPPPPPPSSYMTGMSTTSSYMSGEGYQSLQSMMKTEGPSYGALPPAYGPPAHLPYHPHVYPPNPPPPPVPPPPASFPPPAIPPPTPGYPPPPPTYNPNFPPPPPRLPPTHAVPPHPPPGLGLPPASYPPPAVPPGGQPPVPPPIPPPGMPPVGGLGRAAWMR
Chain of CDK1/Cyclin E1 (P06493 whole entry): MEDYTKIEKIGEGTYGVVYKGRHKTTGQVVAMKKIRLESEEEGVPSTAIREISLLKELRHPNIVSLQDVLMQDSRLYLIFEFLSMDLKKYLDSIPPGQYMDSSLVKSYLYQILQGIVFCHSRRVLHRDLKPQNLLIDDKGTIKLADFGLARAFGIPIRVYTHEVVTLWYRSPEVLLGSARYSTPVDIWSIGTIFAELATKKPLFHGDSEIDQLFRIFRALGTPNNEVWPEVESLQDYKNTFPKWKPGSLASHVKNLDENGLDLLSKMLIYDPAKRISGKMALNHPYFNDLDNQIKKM
Chain of CDK1/Cyclin E1 (P24864 whole entry partner): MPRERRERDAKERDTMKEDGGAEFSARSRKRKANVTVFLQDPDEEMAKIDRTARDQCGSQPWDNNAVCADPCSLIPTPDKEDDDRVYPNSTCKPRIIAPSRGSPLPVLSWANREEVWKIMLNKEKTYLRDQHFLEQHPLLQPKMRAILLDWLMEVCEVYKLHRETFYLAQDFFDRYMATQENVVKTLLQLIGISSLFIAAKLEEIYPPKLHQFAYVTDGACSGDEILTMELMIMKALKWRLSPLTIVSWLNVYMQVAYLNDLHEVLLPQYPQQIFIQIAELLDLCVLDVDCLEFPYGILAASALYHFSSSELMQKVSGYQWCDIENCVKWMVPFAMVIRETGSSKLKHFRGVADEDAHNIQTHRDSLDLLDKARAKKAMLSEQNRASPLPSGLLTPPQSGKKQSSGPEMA
Chain of CDK6/Cyclin D1 (Q00534 whole entry): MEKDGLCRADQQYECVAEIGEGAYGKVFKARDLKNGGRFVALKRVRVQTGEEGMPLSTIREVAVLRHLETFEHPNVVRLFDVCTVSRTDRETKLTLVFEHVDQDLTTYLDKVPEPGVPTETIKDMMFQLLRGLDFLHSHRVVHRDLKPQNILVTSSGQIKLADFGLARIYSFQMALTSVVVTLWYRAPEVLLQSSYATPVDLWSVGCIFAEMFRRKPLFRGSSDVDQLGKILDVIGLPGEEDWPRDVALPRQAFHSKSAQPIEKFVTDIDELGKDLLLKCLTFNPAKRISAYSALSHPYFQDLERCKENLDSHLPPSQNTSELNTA
Chain of CDK6/Cyclin D1 (P24385 whole entry partner): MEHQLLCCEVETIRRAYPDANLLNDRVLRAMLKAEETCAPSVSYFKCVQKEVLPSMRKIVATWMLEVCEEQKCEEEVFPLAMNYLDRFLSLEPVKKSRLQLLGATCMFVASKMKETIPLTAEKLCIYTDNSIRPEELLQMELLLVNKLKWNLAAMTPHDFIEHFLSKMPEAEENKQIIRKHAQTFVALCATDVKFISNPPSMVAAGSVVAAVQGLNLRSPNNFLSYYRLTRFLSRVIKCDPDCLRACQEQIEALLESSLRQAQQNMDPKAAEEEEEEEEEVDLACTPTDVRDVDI

inhibition at 10 µM (CDK1/Cyclin E1; average): 70.4% | inhibition at 10 µM (CDK1/Cyclin E1; experiment 1): 66.2% | inhibition at 10 µM (CDK1/Cyclin E1; experiment 2): 74.6% | inhibition at 10 µM (CDK4/Cyclin D1; average): 78.8% | inhibition at 10 µM (CDK4/Cyclin D1; experiment 1): 79.9% | inhibition at 10 µM (CDK4/Cyclin D1; experiment 2): 77.6% | inhibition at 10 µM (CDK5/CDK5R1; average): 23.7% | inhibition at 10 µM (CDK5/CDK5R1; experiment 1): 27.8% | inhibition at 10 µM (CDK5/CDK5R1; experiment 2): 19.6% | inhibition at 10 µM (CDK6/Cyclin D1; average): 35.2% | inhibition at 10 µM (CDK6/Cyclin D1; experiment 1): 23.8% | inhibition at 10 µM (CDK6/Cyclin D1; experiment 2): 46.5% | inhibition at 10 µM (CDK8/Cyclin C; CDK8/C, average): 95.6% | IC50 (CDK8/Cyclin C; CDK8/C, experiment 1, read-out: IC50): 0.0021 µM | inhibition at 10 µM (CDK8/Cyclin C; CDK8/C, experiment 1): 96.7% | IC50 (CDK8/Cyclin C; CDK8/C, experiment 2, read-out: IC50): 0.005 µM | inhibition at 10 µM (CDK8/Cyclin C; CDK8/C, experiment 2): 94.5% | IC50 (CDK8/Cyclin C; CDK8/C, experiment 3, read-out: IC50): 0.0022 µM | IC50 (CDK8/Cyclin C; live HEK-293, 2 h, mean ± S.E.M. (n=3) or mean (n=2), read-out: IC50 for CDK/cyclin complexes, CDK8/C): 0.003 µM | inhibition at 10 µM (CDK9/Cyclin K; average): 85.1% | inhibition at 10 µM (CDK9/Cyclin K; experiment 1): 84.3% | inhibition at 10 µM (CDK9/Cyclin K; experiment 2): 85.8% | inhibition at 10 µM (CDK11A/Cyclin L2; average): 14.5% | inhibition at 10 µM (CDK11A/Cyclin L2; experiment 1): 19.2% | inhibition at 10 µM (CDK11A/Cyclin L2; experiment 2): 9.8% | inhibition at 10 µM (CDK11B/Cyclin L2; average): 9.9% | inhibition at 10 µM (CDK11B/Cyclin L2; experiment 1): 15.5% | inhibition at 10 µM (CDK11B/Cyclin L2; experiment 2): 4.3% | inhibition at 10 µM (CDK12/Cyclin K; average): 43.7% | inhibition at 10 µM (CDK12/Cyclin K; experiment 1): 39% | inhibition at 10 µM (CDK12/Cyclin K; experiment 2): 48.3% | inhibition at 10 µM (CDK13/Cyclin K; average): 36.6% | inhibition at 10 µM (CDK13/Cyclin K; experiment 1): 32.4% | inhibition at 10 µM (CDK13/Cyclin K; experiment 2): 40.8% | inhibition at 10 µM (CDK14/Cyclin Y; average): 84.9% | inhibition at 10 µM (CDK14/Cyclin Y; experiment 1): 87.3% | inhibition at 10 µM (CDK14/Cyclin Y; experiment 2): 82.6% | inhibition at 10 µM (CDK15/Cyclin Y; average): 80.7% | inhibition at 10 µM (CDK15/Cyclin Y; experiment 1): 82.9% | inhibition at 10 µM (CDK15/Cyclin Y; experiment 2): 78.6% | IC50 (CDK16/Cyclin Y; average (± SEM where n=3)): 0.26 ± 0.07 µM | IC50 (CDK16/Cyclin Y; experiment 1): 0.14 µM | inhibition at 10 µM (CDK16/Cyclin Y; experiment 1): 74.3% | IC50 (CDK16/Cyclin Y; experiment 2): 0.365 µM | inhibition at 10 µM (CDK16/Cyclin Y; experiment 2): 80.7% | IC50 (CDK16/Cyclin Y; experiment 3): 0.27 µM | IC50 (CDK17/Cyclin Y; average (± SEM where n=3)): 0.19 ± 0.06 µM | inhibition at 10 µM (CDK17/Cyclin Y; average): 89.9% | IC50 (CDK17/Cyclin Y; experiment 1): 0.08 µM | inhibition at 10 µM (CDK17/Cyclin Y; experiment 1): 89.1% | IC50 (CDK17/Cyclin Y; experiment 2): 0.281 µM | inhibition at 10 µM (CDK17/Cyclin Y; experiment 2): 90.7% | IC50 (CDK17/Cyclin Y; experiment 3): 0.2 µM | IC50 (CDK18/Cyclin Y; average (± SEM where n=3)): 0.4 ± 0.1 µM | inhibition at 10 µM (CDK18/Cyclin Y; average): 93.7% | IC50 (CDK18/Cyclin Y; experiment 1): 0.144 µM | inhibition at 10 µM (CDK18/Cyclin Y; experiment 1): 88.2% | IC50 (CDK18/Cyclin Y; experiment 2): 0.408 µM | inhibition at 10 µM (CDK18/Cyclin Y; experiment 2): 99.2% | IC50 (CDK18/Cyclin Y; experiment 3): 0.61 µM | inhibition at 10 µM (CDK20/Cyclin H; experiment 1): 40% | inhibition at 10 µM (CDK20/Cyclin H; experiment 2): 64.4% | IC50 (CDK19/Cyclin C; IC50 (nM), CDK19/C, experiment 1): 1.4 nM | IC50 (CDK19/Cyclin C; IC50 (nM), CDK19/C, experiment 2): 2.3 nM | IC50 (CDK19/Cyclin C; IC50 (nM), CDK19/C, experiment 3): 0.5 nM | IC50 (CDK19/Cyclin C; IC50 (nM), CDK19/Y (so in the source), average (± SEM where n=3)): 1.4 ± 0.5 nM | IC50 (CDK19/Cyclin C; IC50 for CDK/cyclin complexes, CDK19/C, live HEK-293, 2 h, mean ± S.E.M. (n=3) or mean (n=2)): 1.4 ± 0.5 nM | inhibition at 10 µM (CDK19/Cyclin C; average): 96.4% | inhibition at 10 µM (CDK19/Cyclin C; experiment 1): 95.5% | inhibition at 10 µM (CDK19/Cyclin C; experiment 2): 97.3% | IC50 (CDK10/Cyclin L2; average (± SEM where n=3)): 500 ± 100 nM | IC50 (CDK10/Cyclin L2; experiment 1): 310 nM | IC50 (CDK10/Cyclin L2; experiment 2): 530 nM | IC50 (CDK10/Cyclin L2; experiment 3): 670 nM | inhibition at 10 µM (CDK10/Cyclin L2; average): 79.8% | inhibition at 10 µM (CDK10/Cyclin L2; experiment 1): 79.7% | inhibition at 10 µM (CDK10/Cyclin L2; experiment 2): 79.9%
SMILES: CN1CCN(Cc2ccc(NC(=O)Nc3ccc(Oc4ccnc(N)n4)cc3)cc2C(F)(F)F)CC1 [K03861]
